# In US20230150951A1, “2,5- OR 2,6-DISUBSTITUTED HYDROQUINONE DERIVATIVES WITH AT LEAST ONE CARBOXY, SULFO OR AMIDO GROUP USEFUL AS MEDICAMENTS” (OM PHARMA SA, priority 2020, published 2023):
# How the values were obtained:
# [1] = test system: human primary cells; test: BioMap Plus phenotypic profiling in human primary cell-based systems; settings: 30, 10, 3.3, 1.1 μM
# Description: A series of in vitro assays was performed using human primary cell-based assays modeling complex tissue and disease biology of organs (vasculature, immune system, skin, lung) and general tissue biology for phenotypic profiling of compounds in conditions that preserve crosstalk and feedback mechanisms relevant to in vivo outcomes.
# [2] = test system: ARPE-19 cells; test: Outer blood retinal barrier: ARPE-19 monolayer permeability to FITC-dextran; format: cell-based, human; settings: for p < 0.05 (ARPE19 permeability versus diabetic milieu): IL-β, after 90 min
# Source text: The mechanisms of actions involved in the anti-permeability effect of the tested treatments were explored by assessing permeability to fluorescent dextran and proinflammatory cytokines production using their mRNA expression levels by RT-PCR.
# (§1) Outer Blood Retinal Barrier conditions: human retinal pigment epithelial cells (RPE) cultures ARPE-19, a spontaneously immortalised human RPE cell line were obtained from American Type Culture Collection (Manassas, Va., USA). ARPE-19 cells and they were cultured in euglycaemic conditions (D-glucose (D-Glc), 5.5 mmol/L) and hyperglycaemic conditions (D-glucose, 25 mmol/L) for 18 days at 37° C. under 5% (vol./vol.) CO2 in medium (DMEM/F12) supplemented with 10% (vol./vol.) FBS (Hyclone; Thermo Fisher Scientific, UT, USA) and 1% (vol./vol.) penicillin/streptomycin (Hyclone; Thermo Fisher Scientific). ARPE-19 cells from passage 20 were used and the medium changed every 3-4 days. For permeability studies, ARPE-19 cells were seeded at 400,000 cells/ml (80,000 RPE cells/well) in 0.33 cm^2 HTS-Transwells (Costar; Corning, N.Y., USA). For real-time PCR, western blot analysis and immunofluorescence cells are seeded at 20,000 cells/ml.
# (§2) Experimental conditions and treatments: apart from the euglycemic condition, eighteen different conditions were tested in cells cultured under 25 mmol/L D-glucose:
# Condition 2) Cells are treated with diabetic milieu 25 mM D-Glucose+vehicle (days 15, 16 and 17 at one application/day) in order to evaluate their effect in preventing the cell damage provoked by the diabetic milieu.
# Condition 9) Cells were treated with 25 mM D-Glucose and bevacizumab (0.2 mg/ml) for 72 h (days 15, 16 and 17 at one application/day) to evaluate their potential cytotoxic effects.
# Condition 10)=Diabetic milieu; cells were treated with 25 mM D-Glucose+[…] (10 ng/ml)+TNF-α (25 ng/ml)+VEGF (25 ng/ml), for 48 h (days 16 and 17 at one application/day) in order to provoke the disruption of the monolayer.
# Condition 17) Cells are treated with diabetic milieu (25 mM D-Glucose+IL-1β (10 ng/ml)+TNF-α (25 ng/ml)+VEGF (25 ng/ml))+bevacizumab (0.2 mg/mL) (days 15, 16 and 17 at one application/day) in order to evaluate their effect in preventing the cell damage provoked by the diabetic milieu.
# Measurement of ARPE-19 permeability: The permeability of RPE cells was determined at 18 days by measuring the apical-to basolateral movements of FITC-dextran (40 kDa) (Sigma, St Louis, […]., USA) following a procedure previously reported by Villarroel et al. Exp Eye Res, 2009, 89, 913-920.
# [3] = test system: ARPE-19 cells; test: ROS and cytokine/VEGF mRNA production by ARPE-19 monolayer cells in non-diabetic and diabetic milieu; format: cell-based, human; settings: ARPE19 monolayer; for ROS: ROS % to 25 mM D-Glucose; for IL-1β R.Q. mRNA / IL-6 R.Q. mRNA / IL-18 R.Q. mRNA / TNFα R.Q. mRNA / VEGF R.Q. mRNA: relative change vs 25 mM D-Gluc
# Description: as §1, §2
# • Proinflammatory cytokines were evaluated in ARPE-19 cells by RT-PCR and mRNA for IL-6, TNF-α, IL-1β, IL-18, VEGF, IL-10, FGF were measured using the double delta CT method 2-ΔΔCT with Cts values for the gene of interest and the endogenous human B-actin to obtain ΔCT; mRNA values were expressed as relative change with respect to the condition 25 mM D-Gluc. (ref: Livak K J, Analysis of Relative Gene Expression Data Using Real-Time Quantitative PCR and the 2-ΔΔCT Method, Methods, 2001, 25(4), 402-408, doi 10.1006/meth.2001.1262) • ROS production was evaluated using Cell Biolabs' OxiSelect™ Intracellular ROS Assay (Green Fluorescence) (Bionova, Madrid, Spain). The assay employs the cell-permeable fluorogenic probe 2′, 7′-Dichlorodihydrofluorescin diacetate (DCFH-DA), oxidized to highly fluorescent 2′, 7′-Dichlorodihydrofluorescein (DCF) by cellular ROS. • Endothelin-1, PDGF and VCAM-1 expression was analyzed in HREC monolayers by immunohistochemical analysis and by RT-PCR. • TJ expression (ZO) is analyzed in ARPE-19 and HREC monolayers by immunohistochemical analysis.
# [4] = No 3-5: 25 mM D-Gluc + compound 25 μg/mL
# [5] = No 6-8: 25 mM D-Gluc + compound 50 μg/mL + VEGF, TNF-α, (so in the source)
# [6] = No 11-13: 25 mM D-Gluc + compound 25 μg/mL + VEGF, TNF-α, (diabetic milieu)
# [7] = No 11-13: compound 25 μg/mL + VEGF, TNF-α
# [8] = No 14-16: 25 mM D-Gluc + compound 50 μg/mL + VEGF, TNF-α, (diabetic milieu)
# [9] = 25 mM D-Gluc, compound 25 μg/mL
# [10] = 25 mM D-Gluc, compound 50 μg/mL
# [11] = diabetic milieu (25 mM D-Gluc + VEGF, TNF-α, IL-1β), compound 25 μg/mL
# [12] = diabetic milieu (25 mM D-Gluc + VEGF, TNF-α, IL-1β), compound 50 μg/mL
compound,measurement,setting,value
"O=C(O)c1cc(NC(=O)c2cc(O)c(C(=O)Nc3ccc(O)c(C(=O)O)c3)cc2O)ccc1O [Ic-007a, 5-(4-(3-carboxy-4-hydroxyphenylaminocarbonyl)-2,5-dihydroxybenzamido)-2-hydroxy benzoic acid]",Antiproliferative effects on human primary cells,[1],"antiproliferative to human primary T cells (30 μM) and fibroblasts (30 μM, 10 μM, 3.3 μM, 1.1 μM)"
same,Cytotoxicity in BioMap Plus,[1],not cytotoxic
same,Immunomodulatory activities,[1],"decreased CD40, M-CSF"
same,Inflammation-related activities,[1],"decreased VCAM-1, sTNFα, MIP-1α, I-TAC, MIG; increased IL-8; modulated IP-10"
same,Number of annotated readouts,[1],20
same,Tissue remodeling activities,[1],"decreased Collagen I, Collagen IV, TIMP-1, tPA, Collagen III, PAI-1, uPAR, bFGF"
same,% permeability ARPE19,[2]; [4],75.2 ± 11.1%
same,% permeability ARPE19,[2]; [5],107.3 ± 43.9%
same,% permeability ARPE19,[2]; [6],103.7 ± 15.7%
same,p < 0.05 (ARPE19 permeability versus diabetic milieu),[2]; [7],"* (* p < 0.05 for FITC dextran leakage measured after 90 min in [ng/mL/cm^2] in comparison with diabetic milieu (25 mM D-Gluose + VEGF, TNF-α, IL-β))"
same,% permeability ARPE19,[2]; [8],127.1 ± 13.5%
same,p < 0.05 (ARPE19 permeability versus diabetic milieu),"[2]; No 14-16: compound 50 μg/mL + VEGF, TNF-α","* (* p < 0.05 for FITC dextran leakage measured after 90 min in [ng/mL/cm^2] in comparison with diabetic milieu (25 mM D-Gluose + VEGF, TNF-α, IL-β))"
same,ROS,[3]; [9],32 ± 15%
same,IL-1β R.Q. mRNA,[3]; [9],0.12 ± 0.01 R.Q.
same,IL-6 R.Q. mRNA,[3]; [9],0.52 ± 0.49 R.Q.
same,IL-18 R.Q. mRNA,[3]; [9],0.45 ± 0.18 R.Q.
same,TNFα R.Q. mRNA,[3]; [9],0.27 ± 0.07 R.Q.
same,VEGF R.Q. mRNA,[3]; [9],0.09 ± 0.02 R.Q.
same,ROS,[3]; [10],26 ± 4.6%
same,IL-1β R.Q. mRNA,[3]; [10],0.15 ± 0.03 R.Q.
same,IL-6 R.Q. mRNA,[3]; [10],0.20 ± 0.07 R.Q.
same,IL-18 R.Q. mRNA,[3]; [10],0.07 ± 0.01 R.Q.
same,TNFα R.Q. mRNA,[3]; [10],0.59 ± 0.33 R.Q.
same,VEGF R.Q. mRNA,[3]; [10],0.12 ± 0.03 R.Q.
same,ROS,[3]; [11],33 ± 4.8 %
same,IL-1β R.Q. mRNA,[3]; [11],12.21 ± 1.46 R.Q.
same,IL-6 R.Q. mRNA,[3]; [11],0.52 ± 0.49 R.Q.
same,IL-18 R.Q. mRNA,[3]; [11],0.02 ± 0.00 R.Q.
same,TNFα R.Q. mRNA,[3]; [11],11.26 ± 0.96 R.Q.
same,VEGF R.Q. mRNA,[3]; [11],0.06 ± 0.02 R.Q.
same,ROS,[3]; [12],27 ± 13 %
same,IL-1β R.Q. mRNA,[3]; [12],10.66 ± 3.01 R.Q.
same,IL-6 R.Q. mRNA,[3]; [12],3.28 ± 1.46 R.Q.
same,IL-18 R.Q. mRNA,[3]; [12],0.02 ± 0.00 R.Q.
same,TNFα R.Q. mRNA,[3]; [12],5.22 ± 3.96 R.Q.
same,VEGF R.Q. mRNA,[3]; [12],0.17 ± 0.05 R.Q.
"O=C(O)c1cc(O)cc(CS(=O)(=O)Cc2cc(O)cc(C(=O)O)c2O)c1O [IVc-059a, 3-((2,5-Dihydroxy-3-carboxyphenyl)methylsulfonylmethyl)-2,5-dihydroxybenzoic acid]",Antiproliferative effects on human primary cells,[1],antiproliferative to human primary endothelial cells (1.1 μM)
same,Cytotoxicity in BioMap Plus,[1],not cytotoxic
same,Immunomodulatory activities,[1],"decreased sIL-10, sIL-2"
same,Inflammation-related activities,[1],decreased sTNFα
same,Number of annotated readouts,[1],three
same,% permeability ARPE19,[2]; [4],70.2 ± 8.8%
same,% permeability ARPE19,[2]; [5],112.6 ± 19.8%
same,% permeability ARPE19,[2]; [6],98.5 ± 36.5%
same,p < 0.05 (ARPE19 permeability versus diabetic milieu),[2]; [7],"* (* p < 0.05 for FITC dextran leakage measured after 90 min in [ng/mL/cm^2] in comparison with diabetic milieu (25 mM D-Gluose + VEGF, TNF-α, IL-β))"
same,% permeability ARPE19,[2]; [8],130.4 ± 24.8%
same,ROS,[3]; [9],62 ± 9%
same,IL-1β R.Q. mRNA,[3]; [9],0.20 ± 0.05 R.Q.
same,IL-6 R.Q. mRNA,[3]; [9],0.28 ± 0.11 R.Q.
same,IL-18 R.Q. mRNA,[3]; [9],0.07 ± 0.01 R.Q.
same,TNFα R.Q. mRNA,[3]; [9],0.27 ± 0.08 R.Q.
same,VEGF R.Q. mRNA,[3]; [9],0.11 ± 0.01 R.Q.
same,ROS,[3]; [10],116 ± 12%
same,IL-1β R.Q. mRNA,[3]; [10],0.21 ± 0.13 R.Q.
same,IL-6 R.Q. mRNA,[3]; [10],0.28 ± 0.11 R.Q.
same,IL-18 R.Q. mRNA,[3]; [10],0.04 ± 0.01 R.Q.
same,TNFα R.Q. mRNA,[3]; [10],0.27 ± 0.10 R.Q.
same,VEGF R.Q. mRNA,[3]; [10],0.06 ± 0.03 R.Q.
same,ROS,[3]; [11],61 ± 40 %
same,IL-1β R.Q. mRNA,[3]; [11],20.81 ± 5.11 R.Q.
same,IL-6 R.Q. mRNA,[3]; [11],5.84 ± 1.13 R.Q.
same,IL-18 R.Q. mRNA,[3]; [11],0.03 ± 0.01 R.Q.
same,TNFα R.Q. mRNA,[3]; [11],5.39 ± 1.01 R.Q.
same,VEGF R.Q. mRNA,[3]; [11],0.04 ± 0.00 R.Q.
same,ROS,[3]; [12],159 ± 32%
same,IL-1β R.Q. mRNA,[3]; [12],27.76 ± 5.18 R.Q.
same,IL-6 R.Q. mRNA,[3]; [12],9.78 ± 2.30 R.Q.
same,IL-18 R.Q. mRNA,[3]; [12],0.01 ± 0.00 R.Q.
same,TNFα R.Q. mRNA,[3]; [12],3.61 ± 1.82 R.Q.
same,VEGF R.Q. mRNA,[3]; [12],0.20 ± 0.03 R.Q.
"O=C(O)c1cc(O)c(CN(Cc2cc(O)c(C(=O)O)cc2O)Cc2cc(O)c(C(=O)O)cc2O)cc1O [IIIc-061a, Tris(4-carboxy-2,5-dihydroxyphenylmethyl)amine]",Antiproliferative effects on human primary cells,[1],did not have any antiproliferative effects
same,Cytotoxicity in BioMap Plus,[1],not cytotoxic
same,Immunomodulatory activities,[1],decreased sIL-17A
same,Inflammation-related activities,[1],"decreased I-TAC, MIG"
same,Number of annotated readouts,[1],six
same,Tissue remodeling activities,[1],"decreased Collagen I, Collagen III, PAI-1"
